Assay results taken from US9125930B2, “EGFR aptamer inhibitor for use in therapy and diagnosis” (CONSIGLIO NAZIONALE DELLE RICERCHE, priority 2010, dated 2015).

What was measured:
A431 cells = experiment: Cell viability assay, A431 cells; format: cell-based, human
Description: (§1) Cell viability was assessed with CellTiter 96® AQueous One Solution Cell Proliferation Assay (Promega, Madison, Wis.) according to according to the supplier's instructions. Cells (4×10^3 cells/well) were plated in 96-well plates in triplicate. and were treated for 24 hs with heat denatured CL4 42-81 or the scrambled aptamer at 3 μM concentration. RNA concentrations were determined to ensure the continuous presence of a concentration of at least 200 nM, which takes into account the 6 hs-half life of the aptamer in 10% serum. The optical density (OD) was measured using a Multilabel Counter (Bio-Rad) at a wavelength of 490 nm and cell viability was calculated by the following formula: Cell viability (%)=(OD treated cells/OD control cells)×100%. FACS Analysis

Calu1 = experiment: Cell viability assay, Calu1 cells; format: cell-based, human; conditions: 200 nM-final concentration; not shown
Description: as §1

caspase-3 = experiment: Caspase-3 activity assay in A549 cells; format: cell-based, human; conditions: A549, 200 nM, 6 hs
Description: (§2) A549 cells were treated with 200 nM CL4 42-81 or the scrambled aptamer for 6 hs. To determine caspase activity cell lysates (50 μg) were incubated at 37° C. for 1 h with 50 μM of a specific fluorometric substrate (Ac-DEVD-AFC for caspase-3, Ac-IETD-AFC for caspase-8, both from Alexis Bichemicals, San Diego, Calif.). Cleavage of the fluorometric substrate were determined using a Fluorometer, with excitation at 400 nm and emission at 505 nm wavelengths.

caspase-8 = experiment: Caspase-8 activity assay in A549 cells; format: cell-based, human; conditions: A549, 200 nM, 6 hs
Description: as §2

ERK = experiment: Immunoblot of EGF-induced ERK phosphorylation; format: cell-based, human; conditions: data not shown
Description: To assess the effects of aptamers on EGFR activity, A549 cells (1.5×10^5 cells per 3.5-cm plate) were serum-starved over night, pretreated with 200 nM CL4 42-81 aptamer or the scrambled aptamer used as a negative control for 3 h and then stimulated for 30 min with 50 ng/ml EGF (R&D Systems, Minneapolis, Minn.) either alone or in presence of each aptamer. The aptamers were subjected to a short denaturation-renaturation step (85° C. for 5 min, snap-cooled on ice for 2 min, and allowed to warm up to 37° C.) before each treatment. To prepare cell extracts, cells were washed twice in ice-cold PBS, and lysed in buffer A (50 mM Tris-HCl pH 8.0 buffer containing 150 mM NaCl, 1% Nonidet P-40, 2 mg/ml aprotinin, 1 mg/ml pepstatin, 2 mg/ml leupeptin, 1 mM Na3VO4). Protein concentration was determined by the Bradford assay using bovine serum albumin as the standard. The cell lysates were subjected to SDS-PAGE. […]

A549 cells [1] = experiment: Binding of [32P]-labeled aptamer on A549 cells; parameters: species or system human
Description: (§3) Binding experiments were performed with 5′-[^32P]-labeled RNA. For labeling 2′-F-Py RNAs were 5′-end dephosphorylated using bacterial alcaline phosphatase (Invitrogen, Carlsbad, Calif.) before [^32P]-5′-end-labeled using T4 kinase (Invitrogen) and γ-[^32P]-ATP (6×10^3 Ci/mmol, GE Healthcare Bio-Sciences, Uppsala, Sweden) according to the supplier's instructions.
(§4) For binding experiments on cells, 3.5×10^4 cells were plated in 24-well plates in triplicate and were incubated with CL4 42-81 aptamer the scrambled sequence used as a negative control at 100 nM concentration in 200 μl of DMEM serum free for 20 min at RT in the presence of 100 μg/ml polyinosine as a nonspecific competitor (Sigma, St. Louis, Mo.). After five washings with 500 μl DMEM, bound sequences were recovered in 300 μl of SDS 1%, and the amount of radioactivity recovered was counted.

NIH3T3 cells = experiment: Binding on parental NIH3T3 cells; parameters: species or system mouse; conditions: [32P]-labeled aptamer at 100 nM; relative to scrambled aptamer
Description: Human NSCLC A549, epidermoid carcinoma A431, glioma U87MG and T98G, breast SKBr3, MCF7 and T47D and mouse fibroblast NIH3T3 (all from American Type Culture Collection, Manassas, Va.) cells were grown in Dulbecco's modified Eagle medium (DMEM) supplemented with 10% fetal bovine serum (FBS) and 2 mM L-glutamine (Invitrogen, Carlsbad, Calif.). NIH3T3 cells stably transfected with human EGFR (NIH/EGFR) were grown in DMEM with 10% FBS and 2 mM L-glutamine supplemented with 50 μg/ml Gentamycin.
as §3, §4

A549 cells [2] = experiment: Apoptosis assay by PI staining and FACS; format: cell-based, human; parameters: dose or concentration left out as unconfirmed
Description: For apoptosis assay, DNA content analysis was performed by staining with propidium iodide (PI) and analyzing cells by flow cytometry (FACS).
[…] Cells were incubated with 2 μg/ml propidium iodide (PI, Sigma, St. Louis, Mo.) for 30 min at 4° C. and recovered. The relative proportion of cells with DNA content indicative of apoptosis (ipoploid) was determined by FACS.

glioma T98G = experiment: Binding on T98G cells; parameters: species or system human; conditions: high level of EGFR; 100 nM
Description: as §3, §4

## CL4 42-81: 2′-fluoropyrimidine nuclease-resistant RNA aptamer of 39 nt: 5′ GCCUUAGUAACGUGCUUUGAUGUCGAUUCGACAGGAGGC 3′ (SEQ ID No. 1) (2'-fluoro at CU, RNA at AG, backbone not given here)
A431 cells; 200 nM-final concentration, not shown
  sensitivity of A431 cell viability: same effect
A431 cells; A431, 24 hs, 200 nM final concentration, relative to untreated cells set to 100%
  cell viability: about 60%
Calu1
  sensitivity of Calu1 cell viability: same effect
caspase-3
  activation of caspase-3: strongly induce activation
caspase-8
  activation of caspase-8: strongly induce activation
ERK
  EGF-induced phosphorylation of ERK: decreases
A549 cells [1]; EGFR-positive, 100 nM
  binding on A549 cells: binds
A549 cells [1]; binding to A549 target cells
  Kd: 38 nM
NIH3T3 cells
  binding on parental NIH3T3 cells: does not binding
A549 cells [2]; A549, 24 hs
  percentage of apoptotic cells (sub-G1 peak): about 30%
A549 cells [2]; A549, 48 hs
  percentage of apoptotic cells (sub-G1 peak): 40%
Glioma T98G
  binding on T98G cells: binds
